Common to all, as to test: biochemical
One experiment has as its target HLA-A*0201 (HLA-A2.1) (Homo sapiens, UniProt P04439, D140Y/D185E/D98H/E176V/E277Q/G131W/G231S/I119V/I121R/I166T/I218V/L300P/L318F/N151K/N90K/P208A/P217A/Q86G/Q94H/R138H/R169H/T345S). In kind it is binding.
The target in the next experiment is A*0202 (Homo sapiens, UniProt P04439, D140Y/D185E/D98H/E176V/E277Q/G131W/G231S/I119L/I121R/I166T/I218V/L180W/L300P/L318F/N151K/N90K/P208A/P217A/Q67R/Q86G/Q94H/R138H/R169H/T345S). In kind it is binding.
For a further experiment, the target named is A*0206 (Homo sapiens, UniProt P04439, D140Y/D185E/D98H/E176V/E277Q/F33Y/G131W/G231S/I119V/I121R/I166T/I218V/L300P/L318F/N151K/N90K/P208A/P217A/Q86G/Q94H/R138H/R169H/T345S). In kind it is binding.
The next experiment has as its target A*6802 (Homo sapiens, UniProt P04439, A269V/D140Y/D185E/E176V/E277Q/E87N/F33Y/G231S/I121R/I166T/I218V/L180W/L300P/L318F/N151K/P208A/P217A/Q86R/R138H/R169H/S129P/T345S/V36M). Type of experiment: binding.
For the next experiment, the target named is DR1 (DRB1*0101) (Homo sapiens, UniProt P01903+P01911, A100R/D57E/F55L/F60I/F76Y/I96L/L162R/M171V/P40L/Q125E/R42F/V115G/Y59C). In kind it is binding.
For a further experiment, the target named is DR4w4 (DRB1*0401) (Homo sapiens, UniProt P01903+P01911, A100K/A169T/F76Y/I96L/K127E/L162R/M171V/N62H/P40V/Q125Y/R42H/S133A/S149N/S66Y/V115G/V209L/W38E). In kind it is binding.
A further experiment concerns the target DRB1*0802 (Homo sapiens, UniProt P01903+P01911, A100R/A103L/A169T/F76Y/H45Y/I96F/K41T/L162R/M171V/P40S/Q125H/Q178H/Q39Y/Q99D/R218S/R42G/S66Y/V115G/W38E). In kind it is binding.
The next experiment concerns the target DRB1*0901 (Homo sapiens, UniProt P01903+P01911, A100R/A103E/D57H/D86V/F55Y/F60I/F76Y/I96F/K127E/L162R/M171V/P40D/Q125H/Q99R/R33Q/R42F/S133A/S66N/T210M/V115G/W38K/Y107V/Y59G/Y89S). Type of experiment: binding.
For a further experiment, the target named is DRB4*0101 (Homo sapiens, UniProt P01903+P13762, G164S). In kind it is binding.
The next experiment has as its target DRB1*1101 (Homo sapiens, UniProt P01903+P01911, A100R/A169T/A87E/I96F/K41T/L162R/M171V/P40S/Q125H/Q178H/Q39Y/Q99D/R42S/S66Y/T262R/V115G/W38E).
A further experiment addresses DRB5*0101 (Homo sapiens, UniProt P01903+Q30154).
A further experiment addresses DRB1*1302 (Homo sapiens, UniProt P01903+P01911, A100E/A169T/K41T/L162R/M171V/P40S/Q125H/Q178H/Q39Y/Q99D/R42S/S66N/T262R/V115G/W38E/Y61H). In kind it is binding.
The next experiment concerns the target DRB1*1501 (Homo sapiens, UniProt P01903+P01911). In kind it is binding.
The next experiment deals with DR7 (DRB1*0701) (Homo sapiens, UniProt P01903+P01911, A100R/A102G/A103Q/D57E/D86V/E43K/F76Y/K127E/L162R/M171V/P40G/Q125H/Q99D/R33Q/R42Y/R54Q/S133A/S66F/T210M/V115G/Y107V/Y59L/Y89S). Type of experiment: binding.

As a reminder, the IC50 is the concentration that inhibits the measured activity by half. A lower IC50 goes with inhibition by little substance.

Read-outs that look alike come from different tables or passages of the source. No end group written: not given here. Where only a bound is given, the exact number is not on record here.

Chain of DRB1*1101 (P01903 26-254 limits assumed, other chains not shown): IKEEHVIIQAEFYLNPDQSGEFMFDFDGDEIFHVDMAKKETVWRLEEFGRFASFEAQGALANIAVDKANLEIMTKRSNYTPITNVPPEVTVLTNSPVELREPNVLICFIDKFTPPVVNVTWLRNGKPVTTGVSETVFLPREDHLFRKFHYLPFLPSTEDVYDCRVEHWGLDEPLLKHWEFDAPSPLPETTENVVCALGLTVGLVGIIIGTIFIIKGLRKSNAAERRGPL
Chain of DRB1*1302 (P01903 26-254 limits assumed, other chains not shown): as above

YVVWDSIYYI [Peptide 1578.52]: the IC50 is 0.077 µM against HLA-A*0201 (HLA-A2.1), 0.127 µM on A*0202 and 0.049 µM on A*0206.

On to VQWAYDNEL [Peptide 86.0196], for which the values for the IC50 on A*0202, against A*0206 and at A*6802 were 0.19 µM, 1.1 µM and greater than 20 µM, respectively.

For the molecule LVQLKCPPLLITSNI [Peptide 89.0021], the IC50 against DR1 (DRB1*0101) is 0.072 µM; against DR4w4 (DRB1*0401) it was 4.29 µM; at DRB1*0802, greater than 20 µM; against DRB1*0901, greater than 20 µM; on DRB4*0101, 0.234 µM; at DRB1*1101 (Binding affinity DRB1 *1101), greater than 20 µM. Also, the concentration for half-maximal inhibition (IC50) at DRB5*0101 (Binding affinity DRB5 *0101) was greater than 20 µM.

Regarding LIRLENAILFTAREH [Peptide 90.0002], the IC50 amounted to 0.023 µM on DR1 (DRB1*0101); 1.22 µM against DR4w4 (DRB1*0401); 11.7 µM at DRB1*0802; 0.051 µM on DRB1*1302; 2.07 µM on DRB1*1501; 0.339 µM against DRB4*0101. For the same molecule, the IC50 at DRB1*1101 (Binding affinity DRB1 *1101) stood at 5.69 µM; on DRB5*0101 (Binding affinity DRB5 *0101), 4.27 µM.

On to RLTVSKLMSQLLNIP [Peptide 89.0100], for which the IC50 against DR7 (DRB1*0701) is 4.99 µM; against DRB1*0802, greater than 20 µM; at DRB1*0901 it was greater than 20 µM; at DRB1*1302 it was 0.0073 µM; at DRB1*1501, greater than 20 µM; on DRB4*0101, 4.82 µM. Further, the IC50 on DRB1*1101 (Binding affinity DRB1 *1101) and at DRB5*0101 (Binding affinity DRB5 *0101) was greater than 20 µM each time.

Regarding RTLQQLMFI [Peptide 1525.23], the IC50 on A*0202 is 1.82 µM; against A*0206 it was 0.055 µM; at A*6802 it was greater than 20 µM.

For the molecule KLFCADPAL [Peptide 1578.50], the IC50 at A*0202 is 0.0068 µM; against A*6802 it was greater than 20 µM.

NKALQAIELQLTLET [Peptide 89.0151]: the IC50 against DR1 (DRB1*0101) was 0.08 µM; against DR7 (DRB1*0701), 1.2 µM; on DRB1*0901, 16.8 µM; against DRB1*1302, 1.8 µM; on DRB1*1501 it was greater than 20 µM; on DRB4*0101, 0.032 µM. The molecule also yielded an IC50 at DRB5*0101 (Binding affinity DRB5 *0101) of 0.462 µM.

Turning to TQQATPGPV [Peptide 9013.0027], the results for the IC50 at HLA-A*0201 (HLA-A2.1), against A*0206 and against A*6802 were greater than 20 µM, 5.87 µM and greater than 20 µM, respectively.

On to `CC[C@H](C)[C@H](NC(=O)[C@H](CCCCN)NC(=O)[C@H](CC(N)=O)NC(=O)[C@@H](NC(=O)[C@@H](NC(=O)[C@H](CC(C)C)NC(=O)[C@@H](NC(=O)[C@H](CO)NC(=O)[C@H](CC(C)C)NC(=O)[C@H](C)N)[C@@H](C)O)C(C)C)C(C)C)C(=O)N[C@@H](CCCNC(=N)N)C(=O)NCC(=O)N[C@H](C(=O)N[C@@H](Cc1ccccc1)C(=O)N[C@@H](CCCCN)C(=O)O)[C@@H](C)O` [Peptide F196.09], for which the IC50 against DRB1*1302 is 0.0076 µM; against DRB1*1501, 0.16 µM; at DRB4*0101, 0.214 µM; against DRB1*1101, 0.032 µM; on DRB5*0101, 0.038 µM.

WLNYTPGPGI [Peptide 73.0129] returned an IC50 on A*0206 greater than 20 µM.

In the case of YTNWKFIYL [Peptide 1578.47], the figures for the IC50 on A*0206 and at A*6802 were 0.084 µM and 0.146 µM, respectively.

IQNIIQNDV [Peptide 9013.0032]: the results for the IC50 against HLA-A*0201 (HLA-A2.1), against A*0202 and on A*6802 were 16.2 µM, 1.93 µM and greater than 20 µM, respectively.

Regarding TNCMLIQPPKLRSTA [Peptide 89.0046], the IC50 against DR7 (DRB1*0701) is 1.12 µM; against DRB1*0901 it was greater than 20 µM; at DRB1*1302 it was 5.1 µM; against DRB1*1501 it was 5.12 µM; on DRB4*0101 it was 0.479 µM; at DRB1*1101 (Binding affinity DRB1 *1101), 1.09 µM.

As to SWGMVMLMLVRFKCA [Peptide 89.0044], the IC50 on DR1 (DRB1*0101) is 4.89 µM; at DR4w4 (DRB1*0401) it was 3.38 µM; against DR7 (DRB1*0701), greater than 20 µM; against DRB1*0802, 9.99 µM; against DRB1*0901, greater than 20 µM; at DRB1*1302, 0.975 µM. Further, the IC50 against DRB4*0101 was 1.44 µM; on DRB5*0101 (Binding affinity DRB5 *0101), 5.06 µM.

Consider QQHTQELFV [Peptide 9013.0078], for which the figures for the IC50 against HLA-A*0201 (HLA-A2.1), against A*0202 and against A*6802 were 2.48 µM, 5.29 µM and greater than 20 µM, respectively.

Take ACSWGMVVLLLVRYK [Peptide 89.0004]: the IC50 is 1.02 µM at DR1 (DRB1*0101); 0.701 µM at DR4w4 (DRB1*0401); 4.77 µM at DRB1*0802; 2 µM against DRB1*0901; 0.87 µM on DRB1*1501; 1.52 µM at DRB4*0101. The molecule also registered an IC50 at DRB5*0101 (Binding affinity DRB5 *0101) greater than 20 µM.

In the case of GHQVVPPMAVSKAKA [Peptide 90.0011], the IC50 at DR4w4 (DRB1*0401) is 0.451 µM; on DR7 (DRB1*0701), 6.24 µM; at DRB1*0802, 1.63 µM; at DRB1*1302, 2.58 µM; on DRB4*0101 it was 0.066 µM; at DRB1*1101 (Binding affinity DRB1 *1101) it was 2.06 µM. The molecule further registered a 50% inhibitory concentration (IC50) at DRB5*0101 (Binding affinity DRB5 *0101) of 5.32 µM.

Consider LKTIIKPHCMYYHMQ [Peptide 89.0119], for which the IC50 at DR1 (DRB1*0101) is greater than 20 µM; against DR4w4 (DRB1*0401), 2 µM; against DR7 (DRB1*0701), greater than 20 µM; at DRB1*0802, greater than 20 µM; against DRB1*0901, greater than 20 µM; on DRB1*1302, 0.104 µM. Besides, the IC50 against DRB1*1501 was 17.4 µM; against DRB4*0101, 1.68 µM; on DRB1*1101 (Binding affinity DRB1 *1101), greater than 20 µM; against DRB5*0101 it was greater than 20 µM.

As for RLLLTASLLV [Peptide 9013.0117], the IC50 against HLA-A*0201 (HLA-A2.1) came to 0.057 µM; against A*0202 it was 0.123 µM; at A*6802, 5.94 µM.

As to GQFRVYPEV [Peptide 9013.0038], the results for the IC50 against A*0206 and on A*6802 were 0.043 µM and greater than 20 µM, respectively.

Take KILQQLLFI [Peptide 1525.21]: the IC50 against HLA-A*0201 (HLA-A2.1) was 0.041 µM; against A*0206 it was 0.051 µM; against A*6802, greater than 20 µM.

Consider TTAKLTIESV [Peptide 9013.0125], for which the half-inhibitory concentration (IC50) is greater than 20 µM against HLA-A*0201 (HLA-A2.1), 4.07 µM on A*0202 and 0.053 µM at A*6802.

`CC[C@H](C)[C@H](NC(=O)[C@@H](N)Cc1c[nH]c2ccccc12)C(=O)N[C@H](C(=O)N[C@@H](CCC(N)=O)C(=O)N[C@@H](CS)C(=O)N[C@@H](Cc1ccccc1)C(=O)N[C@@H](CC(C)C)C(=O)N1CCC[C@H]1C(=O)N[C@H](C(=O)N[C@@H](Cc1ccccc1)C(=O)N[C@@H](CC(C)C)C(=O)N[C@@H](C)C(=O)N[C@@H](CCC(N)=O)C(=O)N1CCC[C@H]1C(=O)N1CCC[C@H]1C(=O)N[C@@H](CO)C(=O)NCC(=O)N[C@@H](CCC(N)=O)C(=O)N[C@@H](CCCNC(=N)N)C(=O)N[C@@H](CCCNC(=N)N)C(=O)O)C(C)C)[C@@H](C)O` [Peptide F189.02]: the IC50 came to 23.6 µM on DRB1*1302, 0.726 µM at DRB1*1501 and 0.688 µM against DRB4*0101.

As for YLLHVIKSDL [Peptide 9013.0152], the IC50 on HLA-A*0201 (HLA-A2.1) came to 0.086 µM; against A*0202, 0.022 µM; against A*0206, 0.062 µM.

With ELQNTTYLWWV [Peptide 9013.0325], the IC50 against HLA-A*0201 (HLA-A2.1) was 3 µM; against A*0206 it was greater than 20 µM; on A*6802, 0.157 µM.

Consider STQELFIPNV [Peptide 9013.0181], for which the results for the IC50 against HLA-A*0201 (HLA-A2.1), against A*0202 and at A*6802 were 5.5 µM, 2.1 µM and 0.854 µM, respectively.
